Reference: article PMC6198068, “Discovery of a Novel Nav1.7 Inhibitor From Cyriopagopus albostriatus Venom With Potent Analgesic Efficacy” (Frontiers in Pharmacology, 2018)
Where a SMILES comes first, the peptide text is derived from it. Bridges are numbered along the chain shown (N, C = ends).

Experiments:
rat Nav1.4 = molecular target: T1, rat Nav1.4 (Rattus norvegicus, UniProt P15390); experiment: Whole-cell patch-clamp, WT Nav1.4 in HEK293T cells; type: cell-based
T1 construct: expressed in transfected cells; host or cells: HEK293T
T1 sequence (P15390 whole entry): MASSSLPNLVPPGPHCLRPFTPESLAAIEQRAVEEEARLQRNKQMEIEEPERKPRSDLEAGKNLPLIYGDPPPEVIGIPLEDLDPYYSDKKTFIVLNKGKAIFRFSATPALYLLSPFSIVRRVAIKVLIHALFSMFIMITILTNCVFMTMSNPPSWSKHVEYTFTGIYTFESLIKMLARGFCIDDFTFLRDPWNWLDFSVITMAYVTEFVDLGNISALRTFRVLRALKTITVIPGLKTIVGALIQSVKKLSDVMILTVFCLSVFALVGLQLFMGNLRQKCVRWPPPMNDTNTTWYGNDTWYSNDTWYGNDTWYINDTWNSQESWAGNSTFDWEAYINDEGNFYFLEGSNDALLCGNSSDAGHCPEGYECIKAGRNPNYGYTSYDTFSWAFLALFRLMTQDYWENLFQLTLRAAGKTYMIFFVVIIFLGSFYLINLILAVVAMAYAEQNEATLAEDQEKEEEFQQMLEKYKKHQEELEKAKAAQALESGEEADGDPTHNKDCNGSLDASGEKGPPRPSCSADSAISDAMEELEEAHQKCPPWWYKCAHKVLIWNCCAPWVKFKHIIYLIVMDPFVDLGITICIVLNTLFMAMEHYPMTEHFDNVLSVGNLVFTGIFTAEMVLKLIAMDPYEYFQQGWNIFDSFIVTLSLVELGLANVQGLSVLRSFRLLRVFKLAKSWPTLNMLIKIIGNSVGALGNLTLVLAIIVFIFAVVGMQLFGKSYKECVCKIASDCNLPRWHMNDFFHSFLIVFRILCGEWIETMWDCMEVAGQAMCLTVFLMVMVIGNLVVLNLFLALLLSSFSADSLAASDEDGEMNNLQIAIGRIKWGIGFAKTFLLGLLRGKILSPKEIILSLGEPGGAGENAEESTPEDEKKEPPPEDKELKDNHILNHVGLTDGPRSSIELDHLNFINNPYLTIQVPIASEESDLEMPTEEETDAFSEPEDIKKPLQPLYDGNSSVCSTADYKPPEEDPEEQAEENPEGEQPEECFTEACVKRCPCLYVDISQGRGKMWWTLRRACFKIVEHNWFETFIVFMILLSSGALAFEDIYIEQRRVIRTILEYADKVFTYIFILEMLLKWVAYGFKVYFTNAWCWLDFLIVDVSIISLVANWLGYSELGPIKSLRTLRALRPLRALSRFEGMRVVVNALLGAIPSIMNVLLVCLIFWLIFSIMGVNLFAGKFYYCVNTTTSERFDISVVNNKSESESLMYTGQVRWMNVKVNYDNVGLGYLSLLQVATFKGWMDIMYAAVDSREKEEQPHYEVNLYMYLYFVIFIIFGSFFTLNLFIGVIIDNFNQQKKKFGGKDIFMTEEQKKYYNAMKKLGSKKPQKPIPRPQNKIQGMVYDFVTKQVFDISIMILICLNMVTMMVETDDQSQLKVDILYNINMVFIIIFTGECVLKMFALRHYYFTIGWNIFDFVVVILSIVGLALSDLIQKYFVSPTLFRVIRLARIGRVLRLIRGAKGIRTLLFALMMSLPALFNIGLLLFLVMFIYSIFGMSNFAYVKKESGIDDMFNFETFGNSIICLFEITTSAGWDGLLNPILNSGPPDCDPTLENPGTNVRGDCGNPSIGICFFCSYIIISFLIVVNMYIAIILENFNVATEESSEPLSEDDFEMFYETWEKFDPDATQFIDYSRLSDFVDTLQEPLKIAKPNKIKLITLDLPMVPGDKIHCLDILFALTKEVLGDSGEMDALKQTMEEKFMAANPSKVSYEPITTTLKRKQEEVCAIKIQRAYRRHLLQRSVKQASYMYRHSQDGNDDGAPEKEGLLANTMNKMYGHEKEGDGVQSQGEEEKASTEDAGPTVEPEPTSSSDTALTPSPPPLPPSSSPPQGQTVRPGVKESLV
From the text: (§1) The cDNA genes encoding rat Nav1.4 and human Nav1.7 were subcloned into vectors pRGB4 and pcDNA3.1-mod, respectively. Mutations of rNav1.4 (N655D, Q657E, and N655D/Q657E) and hNav1.7 (D816N, E818Q, and D816N/E818Q) were constructed using the Gene Tailor Site-Directed Mutagenesis system (Invitrogen, Carlsbad, CA, United States), according to the manufacturer’s instructions. Nav1.2–Nav1.7 and mutant plasmids together with eGFP were transiently transfected into HEK293T cells while Nav1.8 together with eGFP was transiently transfected into ND7/23 cells by Lipofectamine 2000 (Invitrogen, Carlsbad, CA, United States). Additionally, plasmids β1- and β2-eGFP encoding the human β1 and β2 subunits, respectively, were co-transfected with those encoding WT Nav1.7 and Nav1.7 mutations in HEK293T cells. Human Nav1.9 was transfected into ND7/23 cells according to a previous report ([Zhou et al., 2017]). HEK293T and ND7/23 cells were grown under standard tissue culture conditions (5% CO2, 37°C) in Dulbecco’s modified Eagle’s medium (DMEM) supplemented with 10% fetal bovine serum (FBS). Cells with green fluorescent protein fluorescence were selected for whole-cell patch-clamp recordings 24 h after transfection.
Whole-cell patch-clamp recordings were performed at room temperature (20–25°C) using an EPC 10 USB Patch Clamp Amplifier (HEKA, Elektronik, Lambrecht, Germany). Suction pipettes with access resistance of 2.0–3.0 MΩ were made from borosilicate glass capillary tubes (thickness = 0.225 mm) using a two-step vertical microelectrode puller (PC-10; Narishige, Tokyo, Japan). The standard pipet solution contained (in mM): 140 CsCl, 10 NaCl, 1 EGTA, and 10 HEPES (pH 7.4). Bath solution contained (in mM): 140 NaCl, 2 CaCl2, 1 MgCl2, 5 KCl, 20 HEPES (pH 7.4), and 10 glucose. All chemicals were the products of Sigma-Aldrich (St. Louis, MO, United States) and dissolved in water. […] Data was analyzed by software Igo Pro 6.10A (WaveMetrics, Lake Oswego, OR, United States), SigmaPlot 10.0 (Sigma-Aldrich, St. Louis, MO, United States), OriginPro 8 (OriginLab Corp., Northampton, MA, United States), and GraphPad Prism 5 (GraphPad Software, San Diego, CA, United States). […]
(§2) Concentration-response curves were fitted using the following Hill logistic equation: y = fmax − (fmax − fmin)/(1 + (x/IC50)^n), where fmax and fmin, respectively, represent the channel’s maximum and minimum responses to toxins, fmin was set to 0, x represents toxin concentration and n is an empirical Hill coefficient. […] Peak inward currents from steady-state inactivation were normalized by the maximum current amplitude and fit with a Boltzmann equation I = Imin + 1/(1 + exp[Vm − V1/2/k]) where I is the current amplitude measured during the test depolarization, V1/2 is the midpoint of inaction, and k is the slope factor. […]

Nav1.5 = molecular target: T2, Nav1.5 (Homo sapiens, UniProt Q14524); experiment: in vitro
T2 construct: expressed in transfected cells; host or cells: HEK293T
From the text: as §1, with “HEK293T and ND7/23 cells were grown under standard tissue culture conditions (5% CO2, 37°C) in Dulbecco’s modified Eagle’s medium (DMEM) supplemented with 10% fetal bovine serum (FBS).” left out
(§3) Whole-cell patch-clamp recordings were performed at room temperature (20–25°C) using an EPC 10 USB Patch Clamp Amplifier (HEKA, Elektronik, Lambrecht, Germany). […] Data was analyzed by software Igo Pro 6.10A (WaveMetrics, Lake Oswego, OR, United States), SigmaPlot 10.0 (Sigma-Aldrich, St. Louis, MO, United States), OriginPro 8 (OriginLab Corp., Northampton, MA, United States), and GraphPad Prism 5 (GraphPad Software, San Diego, CA, United States). […]
as §2

Nav1.8 = experiment: Whole-cell patch-clamp, Nav1.8 in ND7/23 cells; type: cell-based; conditions: up to 10 μM, depolarization to +20 mV
From the text: as §1, with “Human Nav1.9 was transfected into ND7/23 cells according to a previous report ([Zhou et al., 2017]). HEK293T and ND7/23 cells were grown under standard tissue culture conditions (5% CO2, 37°C) in Dulbecco’s modified Eagle’s medium (DMEM) supplemented with 10% fetal bovine serum (FBS).” left out
as §3

Nav1.7 = molecular target: T3, Nav1.7 (Homo sapiens, UniProt Q15858); experiment: Rate of toxin dissociation from Nav1.7 at depolarizing pulses; type: cell-based; conditions: 1 μM, mean ± SEM, n = 6–11 cells
T3 construct: expressed in transfected cells; host or cells: HEK293T
T3 sequence (O60939 30-215): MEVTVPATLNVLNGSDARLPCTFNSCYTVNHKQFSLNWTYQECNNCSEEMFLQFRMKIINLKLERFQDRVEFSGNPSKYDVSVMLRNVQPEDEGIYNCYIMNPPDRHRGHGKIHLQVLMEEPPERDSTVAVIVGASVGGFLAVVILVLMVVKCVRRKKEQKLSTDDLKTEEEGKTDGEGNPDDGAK
T3 sequence (Q15858 other isoform, or with tags, fused parts or gaps): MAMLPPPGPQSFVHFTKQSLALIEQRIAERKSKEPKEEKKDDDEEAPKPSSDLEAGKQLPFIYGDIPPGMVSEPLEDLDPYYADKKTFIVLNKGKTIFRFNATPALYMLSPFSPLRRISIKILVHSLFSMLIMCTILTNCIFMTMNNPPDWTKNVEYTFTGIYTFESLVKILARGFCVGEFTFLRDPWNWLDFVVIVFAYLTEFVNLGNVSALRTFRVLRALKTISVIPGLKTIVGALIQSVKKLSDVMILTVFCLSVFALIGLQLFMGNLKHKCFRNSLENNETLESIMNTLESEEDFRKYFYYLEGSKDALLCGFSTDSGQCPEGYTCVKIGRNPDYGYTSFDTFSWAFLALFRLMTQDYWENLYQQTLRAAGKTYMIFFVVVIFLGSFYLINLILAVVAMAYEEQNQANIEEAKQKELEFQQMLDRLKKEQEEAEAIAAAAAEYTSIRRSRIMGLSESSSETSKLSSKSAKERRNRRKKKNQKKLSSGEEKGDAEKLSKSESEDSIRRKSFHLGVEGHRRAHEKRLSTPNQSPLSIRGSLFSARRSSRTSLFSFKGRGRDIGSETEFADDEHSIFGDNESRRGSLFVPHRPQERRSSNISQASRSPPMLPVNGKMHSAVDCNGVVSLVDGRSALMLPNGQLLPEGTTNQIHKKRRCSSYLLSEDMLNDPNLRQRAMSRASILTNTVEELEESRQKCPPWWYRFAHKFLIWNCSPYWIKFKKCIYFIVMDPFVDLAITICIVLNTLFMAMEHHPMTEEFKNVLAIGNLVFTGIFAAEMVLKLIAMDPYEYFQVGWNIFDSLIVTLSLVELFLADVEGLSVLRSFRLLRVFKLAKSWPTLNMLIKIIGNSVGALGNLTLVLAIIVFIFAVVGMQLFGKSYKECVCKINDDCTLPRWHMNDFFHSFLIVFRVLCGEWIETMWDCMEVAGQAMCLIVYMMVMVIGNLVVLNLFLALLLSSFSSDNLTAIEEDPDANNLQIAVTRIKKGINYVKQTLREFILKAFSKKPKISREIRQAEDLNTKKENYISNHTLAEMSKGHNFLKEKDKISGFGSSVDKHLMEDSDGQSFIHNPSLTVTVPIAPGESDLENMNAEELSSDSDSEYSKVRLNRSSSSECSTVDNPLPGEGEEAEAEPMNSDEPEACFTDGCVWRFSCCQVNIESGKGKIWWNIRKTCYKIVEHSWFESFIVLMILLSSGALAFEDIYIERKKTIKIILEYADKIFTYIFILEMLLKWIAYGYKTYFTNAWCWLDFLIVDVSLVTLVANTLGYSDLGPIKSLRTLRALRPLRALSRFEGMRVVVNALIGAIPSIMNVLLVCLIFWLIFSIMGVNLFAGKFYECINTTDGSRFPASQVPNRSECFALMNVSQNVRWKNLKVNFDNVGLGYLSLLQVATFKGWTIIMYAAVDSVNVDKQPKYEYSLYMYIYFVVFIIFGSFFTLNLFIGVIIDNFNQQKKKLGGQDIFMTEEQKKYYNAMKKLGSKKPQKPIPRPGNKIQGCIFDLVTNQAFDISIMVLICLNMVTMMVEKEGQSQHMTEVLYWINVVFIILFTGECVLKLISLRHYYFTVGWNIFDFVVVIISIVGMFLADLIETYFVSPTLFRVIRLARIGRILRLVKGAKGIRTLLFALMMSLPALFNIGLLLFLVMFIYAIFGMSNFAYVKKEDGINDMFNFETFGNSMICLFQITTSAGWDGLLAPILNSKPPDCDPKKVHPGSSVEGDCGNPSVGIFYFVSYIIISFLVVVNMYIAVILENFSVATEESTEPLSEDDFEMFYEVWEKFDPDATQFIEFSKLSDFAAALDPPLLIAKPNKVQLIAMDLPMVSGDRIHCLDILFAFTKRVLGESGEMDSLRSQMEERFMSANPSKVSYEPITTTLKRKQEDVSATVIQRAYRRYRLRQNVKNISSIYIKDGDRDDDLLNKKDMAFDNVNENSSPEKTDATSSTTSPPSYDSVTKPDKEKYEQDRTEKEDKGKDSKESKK
T3 sequence (Q07699 19-218, further chain): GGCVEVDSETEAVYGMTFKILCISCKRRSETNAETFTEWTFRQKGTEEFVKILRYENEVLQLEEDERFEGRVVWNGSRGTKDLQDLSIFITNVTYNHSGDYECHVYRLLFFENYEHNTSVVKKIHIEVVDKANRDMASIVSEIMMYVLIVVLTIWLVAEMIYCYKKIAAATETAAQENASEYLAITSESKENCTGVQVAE
From the text: as §1, with “HEK293T and ND7/23 cells were grown under standard tissue culture conditions (5% CO2, 37°C) in Dulbecco’s modified Eagle’s medium (DMEM) supplemented with 10% fetal bovine serum (FBS).” left out
as §3
Fast inactivation time constants were calculated by fitting current decay traces with a single exponential function using the I–V protocol described above. Recovery from fast-inactivation (repriming) was assessed by using a two-pulse protocol consisting of a depolarizing pulse to −10 mV for 50 ms to inactivate channels, followed by a step to −100 mV of variable duration (1 to 1024 ms) to promote recovery, and 50 ms test pulse to −10 mV to assess availability of channels. […]

Nav1.7/D816N [1] = molecular target: T4, Nav1.7/D816N (Homo sapiens, UniProt Q15858, D827N); experiment: Whole-cell patch-clamp, Nav1.7/D816N in HEK293T cells; type: cell-based
T4 construct: expressed in transfected cells; host or cells: HEK293T
T4 sequence (O60939 30-215): as the sequence (O60939 30-215) above
T4 sequence (Q07699 19-218, further chain): as the sequence (Q07699 19-218, further chain) above
T4 sequence (Q15858 other isoform, or with tags, fused parts or gaps D816N): as the sequence (Q15858 other isoform, or with tags, fused parts or gaps) above, with D816N counted along it
From the text: as §1, with “Human Nav1.9 was transfected into ND7/23 cells according to a previous report ([Zhou et al., 2017]). HEK293T and ND7/23 cells were grown under standard tissue culture conditions (5% CO2, 37°C) in Dulbecco’s modified Eagle’s medium (DMEM) supplemented with 10% fetal bovine serum (FBS).” left out
as §3

Nav1.7/D816N/E818Q = experiment: Whole-cell patch-clamp, Nav1.7/D816N/E818Q in HEK293T cells; type: cell-based, human; conditions: 1 μM, n = 5 cells
From the text: as §1, with “Human Nav1.9 was transfected into ND7/23 cells according to a previous report ([Zhou et al., 2017]). HEK293T and ND7/23 cells were grown under standard tissue culture conditions (5% CO2, 37°C) in Dulbecco’s modified Eagle’s medium (DMEM) supplemented with 10% fetal bovine serum (FBS).” left out
as §3

Nav1.7/D816N [2] = molecular target: T4, Nav1.7/D816N; experiment: Fast inactivation kinetics in Nav1.7/D816N channel; type: cell-based; conditions: 0.2 µM; between -10 mV and +10 mV; n = 7
From the text: The cDNA genes encoding rat Nav1.4 and human Nav1.7 were subcloned into vectors pRGB4 and pcDNA3.1-mod, respectively. Mutations of rNav1.4 (N655D, Q657E, and N655D/Q657E) and hNav1.7 (D816N, E818Q, and D816N/E818Q) were constructed using the Gene Tailor Site-Directed Mutagenesis system (Invitrogen, Carlsbad, CA, United States), according to the manufacturer’s instructions. Nav1.2–Nav1.7 and mutant plasmids together with eGFP were transiently transfected into HEK293T cells while Nav1.8 together with eGFP was transiently transfected into ND7/23 cells by Lipofectamine 2000 (Invitrogen, Carlsbad, CA, United States). […] Cells with green fluorescent protein fluorescence were selected for whole-cell patch-clamp recordings 24 h after transfection.
as §3
Fast inactivation time constants were calculated by fitting current decay traces with a single exponential function using the I–V protocol described above. […]

For `CC(C)C[C@H](NC(=O)[C@H](CC(=O)O)NC(=O)[C@H](Cc1ccc(O)cc1)NC(=O)[C@H](CCCCN)NC(=O)[C@@H]1CSSC[C@@H]2NC(=O)[C@H](CCCCN)NC(=O)[C@H](CC(=O)O)NC(=O)[C@H](CC(N)=O)NC(=O)[C@H](CO)NC(=O)[C@@H]3CCCN3C(=O)[C@H](CC(N)=O)NC(=O)[C@@H]3CSSC[C@H](NC(=O)[C@H](C(C)C)NC(=O)[C@H](CC(C)C)NC(=O)[C@H](CO)NC(=O)[C@H](CO)NC(=O)[C@H](CO)NC(=O)[C@H](CCCCN)NC(=O)[C@H](CSSC[C@H](NC(=O)[C@H](C)N)C(=O)N[C@@H](CC(C)C)C(=O)NCC(=O)N[C@@H](Cc4ccccc4)C(=O)NCC(=O)N[C@@H](CCC(=O)O)C(=O)N[C@@H](CCCCN)C(=O)N3)NC2=O)C(=O)N[C@@H](CO)C(=O)N[C@@H](CCC(N)=O)C(=O)N[C@@H](CCCCN)C(=O)N[C@@H](Cc2c[nH]cn2)C(=O)N[C@@H](CCCCN)C(=O)N[C@@H](Cc2c[nH]c3ccccc23)C(=O)N1)C(=O)O` [Ca2a] (H-ACLGFGEKCNPSNDKCCKSSSLVCSQKHKWCKYDL-OH; disulfide 2-17, 9-24, 16-31 (inferred); N-terminus and C-terminus assumed), the “inhibitory effect on WT Nav1.4” value (rat Nav1.4; 1 μM, HEK293T, n = 4–5 cells) was “no inhibitory effect”, the “selectivity for Nav1.7 against Nav1.4” value (rat Nav1.4; skeletal isoform Nav1.4 vs Nav1.7) was “more than 100 fold” and the IC50 (rat Nav1.4; skeletal muscle isoform, whole-cell patch-clamp, HEK293T) was > 10 µM. The “inhibitory effect on Nav1.4 currents” value (rat Nav1.4; up to 10 μM, HEK293T) was “no inhibitory effects”, the selectivity ratio (Nav1.5; cardiac isoform Nav1.5 vs Nav1.7, read-out: selectivity for Nav1.7 against Nav1.5) was > 100 and the IC50 (Nav1.5; cardiac muscle isoform, whole-cell patch-clamp, HEK293T) was > 10 µM. For the same compound, the “inhibitory effect on Nav1.5 currents” value (Nav1.5; up to 10 μM, HEK293T) was “no inhibitory effects”, the “inhibitory effect on Nav1.8 currents” value (Nav1.8) was “no inhibitory effects” and the “dissociation time constant from Nav1.7” value (Nav1.7; at 60 mV) was 547.2 ± 24.3 ms. The “dissociation time constant from Nav1.7” value (Nav1.7; at 80 mV) was 347.9 ± 29.2 ms, the “dissociation time constant from Nav1.7” value (Nav1.7; at 100 mV) was 169.8 ± 25.6 ms and the “inhibition of Nav1.7/D816N current amplitude” value (Nav1.7/D816N [1]; 1 μM) was “significantly inhibited”. The IC50 (Nav1.7/D816N [1]; mean ± SEM, n = 5 cells per data point) was 0.172 ± 0.0114 µM, the “activity on Nav1.7/D816N/E818Q” value (Nav1.7/D816N/E818Q) was “no activity” and the “inactivation time constant of Nav1.7/D816N” value (Nav1.7/D816N [2]) was “did not alter inactivation time constant”.
